Reference: the NIST ThermoML archive (doi:10.1021/je050089u)
Numbers after ± are expanded uncertainties.

Test: excess molar enthalpy (molar enthalpy of mixing); xn = mol fraction of the nth substance listed
Conditions: Fluid (supercritical or subcritical phases)

COC(=O)OC [dimethyl carbonate] + O=C=O
excess molar enthalpy [kcal/mol]
Conditions | 303.15 K | 308.15 K
5000 kPa, x2 = 0.1537 | – | -0.47 ± 0.00765
5000 kPa, x2 = 0.2239 | – | -0.66 ± 0.0105
5000 kPa, x2 = 0.2901 | – | -0.855 ± 0.0136
5000 kPa, x2 = 0.412 | – | -1.2 ± 0.0189
5000 kPa, x2 = 0.4682 | – | -1.36 ± 0.0213
5000 kPa, x2 = 0.5215 | – | -1.49 ± 0.0234
5000 kPa, x2 = 0.6205 | – | -1.73 ± 0.0263
5000 kPa, x2 = 0.7103 | – | -1.93 ± 0.0311
5000 kPa, x2 = 0.7189 | – | -1.93 ± 0.0311
5000 kPa, x2 = 0.7273 | – | -1.88 ± 0.0287
5000 kPa, x2 = 0.7923 | – | -1.4 ± 0.022
5000 kPa, x2 = 0.8674 | – | -0.854 ± 0.0136
5000 kPa, x2 = 0.9364 | – | -0.391 ± 0.00645
5000 kPa, x2 = 0.9877 | – | -0.00526 ± 0.00191
5000 kPa, x2 = 0.9939 | – | 0.0268 ± 0.00215
5500 kPa, x2 = 0.1547 | – | -0.44 ± 0.00717
5500 kPa, x2 = 0.2917 | – | -0.836 ± 0.0134
5500 kPa, x2 = 0.3544 | – | -1.02 ± 0.0163
5500 kPa, x2 = 0.4138 | – | -1.16 ± 0.0184
5500 kPa, x2 = 0.47 | – | -1.31 ± 0.0208
5500 kPa, x2 = 0.5234 | – | -1.45 ± 0.0227
5500 kPa, x2 = 0.574 | – | -1.57 ± 0.0239
5500 kPa, x2 = 0.6222 | – | -1.69 ± 0.0263
5500 kPa, x2 = 0.6681 | – | -1.78 ± 0.0287
5500 kPa, x2 = 0.7119 | – | -1.89 ± 0.0287
5500 kPa, x2 = 0.7536 | – | -1.94 ± 0.0311
5500 kPa, x2 = 0.7698 | – | -1.96 ± 0.0311
5500 kPa, x2 = 0.7935 | – | -1.79 ± 0.0287
5500 kPa, x2 = 0.8317 | – | -1.46 ± 0.0229
5500 kPa, x2 = 0.8682 | – | -1.12 ± 0.0177
5500 kPa, x2 = 0.9368 | – | -0.498 ± 0.00813
6000 kPa, x2 = 0.1556 | – | -0.426 ± 0.00693
6000 kPa, x2 = 0.2931 | – | -0.79 ± 0.0127
6000 kPa, x2 = 0.4154 | – | -1.12 ± 0.0177
6000 kPa, x2 = 0.4717 | – | -1.25 ± 0.0198
6000 kPa, x2 = 0.5757 | – | -1.5 ± 0.0237
6000 kPa, x2 = 0.6238 | – | -1.6 ± 0.0263
6000 kPa, x2 = 0.7132 | – | -1.77 ± 0.0287
6000 kPa, x2 = 0.7549 | – | -1.84 ± 0.0287
6000 kPa, x2 = 0.7946 | – | -1.91 ± 0.0287
6000 kPa, x2 = 0.7947 | -1.9 ± 0.0287 | –
6000 kPa, x2 = 0.8326 | – | -1.93 ± 0.0311
6000 kPa, x2 = 0.8327 | -1.93 ± 0.0311 | –
6000 kPa, x2 = 0.869 | – | -1.5 ± 0.0237
6000 kPa, x2 = 0.8691 | -1.96 ± 0.0311 | –
6000 kPa, x2 = 0.8901 | -1.95 ± 0.0311 | –
6000 kPa, x2 = 0.897 | -1.94 ± 0.0311 | –
6000 kPa, x2 = 0.9039 | -1.82 ± 0.0287 | –
6000 kPa, x2 = 0.9372 | -1.18 ± 0.0186 | -0.715 ± 0.0115
6000 kPa, x2 = 0.9692 | – | -0.276 ± 0.00454
6000 kPa, x2 = 0.9693 | -0.547 ± 0.00884 | –
6500 kPa, x2 = 0.0807 | – | -0.219 ± 0.00382
6500 kPa, x2 = 0.1564 | – | -0.404 ± 0.00669
6500 kPa, x2 = 0.2275 | – | -0.582 ± 0.00932
6500 kPa, x2 = 0.2944 | – | -0.751 ± 0.012
6500 kPa, x2 = 0.3574 | – | -0.928 ± 0.0148
6500 kPa, x2 = 0.4169 | – | -1.05 ± 0.0167
6500 kPa, x2 = 0.4733 | – | -1.2 ± 0.0189
6500 kPa, x2 = 0.5266 | – | -1.31 ± 0.0206
6500 kPa, x2 = 0.5772 | – | -1.41 ± 0.0222
6500 kPa, x2 = 0.6253 | – | -1.52 ± 0.0239
6500 kPa, x2 = 0.671 | – | -1.61 ± 0.0263
6500 kPa, x2 = 0.7145 | – | -1.67 ± 0.0263
6500 kPa, x2 = 0.756 | – | -1.75 ± 0.0287
6500 kPa, x2 = 0.7956 | – | -1.8 ± 0.0287
6500 kPa, x2 = 0.8335 | – | -1.83 ± 0.0287
6500 kPa, x2 = 0.8697 | – | -1.85 ± 0.0287
6500 kPa, x2 = 0.8837 | – | -1.84 ± 0.0287
6500 kPa, x2 = 0.9044 | – | -1.61 ± 0.0263
6500 kPa, x2 = 0.9376 | – | -1.02 ± 0.0163
6500 kPa, x2 = 0.9694 | – | -0.47 ± 0.00765
7000 kPa, x2 = 0.0812 | – | -0.208 ± 0.00382
7000 kPa, x2 = 0.1572 | – | -0.389 ± 0.00645
7000 kPa, x2 = 0.2285 | – | -0.551 ± 0.00884
7000 kPa, x2 = 0.2956 | – | -0.722 ± 0.0115
7000 kPa, x2 = 0.3587 | – | -0.859 ± 0.0136
7000 kPa, x2 = 0.4184 | – | -1 ± 0.0158
7000 kPa, x2 = 0.4747 | – | -1.11 ± 0.0174
7000 kPa, x2 = 0.528 | – | -1.23 ± 0.0194
7000 kPa, x2 = 0.5786 | – | -1.32 ± 0.0208
7000 kPa, x2 = 0.6266 | – | -1.42 ± 0.0222
7000 kPa, x2 = 0.6723 | – | -1.49 ± 0.0234
7000 kPa, x2 = 0.7157 | – | -1.56 ± 0.0239
7000 kPa, x2 = 0.7571 | – | -1.62 ± 0.0263
7000 kPa, x2 = 0.7966 | – | -1.65 ± 0.0263
7000 kPa, x2 = 0.8343 | – | -1.69 ± 0.0263
7000 kPa, x2 = 0.8703 | – | -1.71 ± 0.0263
7000 kPa, x2 = 0.9049 | – | -1.68 ± 0.0263
7000 kPa, x2 = 0.9249 | – | -1.66 ± 0.0263
7000 kPa, x2 = 0.9443 | – | -1.35 ± 0.0213
7000 kPa, x2 = 0.9507 | – | -1.24 ± 0.0196
7000 kPa, x2 = 0.9697 | – | -0.767 ± 0.0122
7500 kPa, x2 = 0.0816 | – | -0.178 ± 0.00335
7500 kPa, x2 = 0.1579 | – | -0.338 ± 0.0055
7500 kPa, x2 = 0.2294 | – | -0.499 ± 0.00813
7500 kPa, x2 = 0.2967 | – | -0.633 ± 0.0103
7500 kPa, x2 = 0.36 | – | -0.771 ± 0.0124
7500 kPa, x2 = 0.4197 | – | -0.885 ± 0.0141
7500 kPa, x2 = 0.476 | – | -0.996 ± 0.0158
7500 kPa, x2 = 0.5294 | – | -1.09 ± 0.0172
7500 kPa, x2 = 0.5799 | – | -1.17 ± 0.0186
7500 kPa, x2 = 0.6279 | – | -1.24 ± 0.0196
7500 kPa, x2 = 0.6734 | – | -1.32 ± 0.0208
7500 kPa, x2 = 0.7168 | – | -1.37 ± 0.0217
7500 kPa, x2 = 0.7581 | – | -1.42 ± 0.0225
7500 kPa, x2 = 0.7974 | – | -1.44 ± 0.0227
7500 kPa, x2 = 0.835 | – | -1.46 ± 0.0229
7500 kPa, x2 = 0.871 | – | -1.47 ± 0.0232
7500 kPa, x2 = 0.9053 | – | -1.48 ± 0.0232
7500 kPa, x2 = 0.9382 | – | -1.42 ± 0.0225
7500 kPa, x2 = 0.9698 | – | -1.24 ± 0.0196
7500 kPa, x2 = 0.9759 | – | -1.02 ± 0.0163
